The source made the active and inactive calls. No cut-off for these calls is given here.
What was measured:
[1] = Acute toxicity in female Sprague-Dawley rat assessed as change in ratio of ovary to body weight at 15 to 200 mg/kg, po administered every alternate days for 2 weeks measured on day 14; type: organism-based; conditions: in vivo, 336 h, dose 15-200 mg/kg, time 14 day
Egl nine homolog 1 [2] = target: T1, Egl nine homolog 1 (Homo sapiens, UniProt Q9GZT9); assay: Inhibition of FITC-HIF1alpha (556 to 574 residues) binding to PHD2 (181 to 426 residues) (unknown origin) by fluorescence polarization assay
Target sequence in this assay (Q9GZT9 whole entry, the tested form may be a part): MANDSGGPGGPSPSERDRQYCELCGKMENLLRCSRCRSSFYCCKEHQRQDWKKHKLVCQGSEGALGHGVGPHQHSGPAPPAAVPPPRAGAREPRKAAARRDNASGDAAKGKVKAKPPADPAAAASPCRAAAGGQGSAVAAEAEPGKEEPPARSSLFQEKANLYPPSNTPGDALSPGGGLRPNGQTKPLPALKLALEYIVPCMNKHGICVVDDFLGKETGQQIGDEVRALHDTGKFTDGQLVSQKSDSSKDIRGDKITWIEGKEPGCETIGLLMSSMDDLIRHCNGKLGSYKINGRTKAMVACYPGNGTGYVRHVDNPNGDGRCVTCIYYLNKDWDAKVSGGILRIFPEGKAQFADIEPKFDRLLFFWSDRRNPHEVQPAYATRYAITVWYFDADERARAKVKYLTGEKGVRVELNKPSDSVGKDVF

[3] = Oral bioavailability in Sprague-Dawley rat at 2 mg/kg by LC-MS/MS analysis; type: ADME, organism-based; conditions: in vivo
Egl nine homolog 1 [4] = target: T1, Egl nine homolog 1; assay: Inhibition of PHD2 in human Hep3B cells assessed as increase in EPO expression measured after 24 hrs by ELISA; type: cell-based; conditions: dose microM 5-50, time 24.0 hrs
Target sequence in this assay (Q9GZT9 2-426 limits assumed): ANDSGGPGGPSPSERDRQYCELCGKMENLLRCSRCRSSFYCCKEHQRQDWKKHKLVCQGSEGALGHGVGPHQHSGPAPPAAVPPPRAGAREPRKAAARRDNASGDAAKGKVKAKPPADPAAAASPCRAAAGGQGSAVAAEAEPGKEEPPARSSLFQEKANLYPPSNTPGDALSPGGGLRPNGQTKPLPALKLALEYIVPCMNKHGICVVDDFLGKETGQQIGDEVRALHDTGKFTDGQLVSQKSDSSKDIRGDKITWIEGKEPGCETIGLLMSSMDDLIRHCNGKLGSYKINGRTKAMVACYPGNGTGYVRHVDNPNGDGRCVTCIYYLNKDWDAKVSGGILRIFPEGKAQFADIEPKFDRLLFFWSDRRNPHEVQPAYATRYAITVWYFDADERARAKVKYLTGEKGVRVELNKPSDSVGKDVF

[5] = Hepatotoxicity in male Sprague-Dawley rat assessed as change in globulin level at 15 to 200 mg/kg, po administered every alternate days for 2 weeks measured on day 14; type: toxicity, organism-based; conditions: in vivo, 336 h, dose 15-200 mg/kg, time 14 day
[6] = Nephrotoxicity in Sprague-Dawley rat assessed as change in urea level in blood at 15 to 200 mg/kg, po administered every alternate days for 2 weeks measured on day 14; type: toxicity, organism-based; conditions: in vivo, 336 h, dose 15-200 mg/kg, time 14 day
HUVEC = assay: Cytotoxicity against human HUVEC cells assessed as reduction in cell viability at 10 to 100 uM incubated for 72 hrs by MTT assay; type: cell-based; conditions: dose 10-100 µM
[7] = Acute toxicity in Sprague-Dawley rat assessed as change in ratio of kidney to body weight at 15 to 200 mg/kg, po administered every alternate days for 2 weeks measured on day 14; type: organism-based; conditions: in vivo, 336 h, dose 15-200 mg/kg, time 14 day
[8] = Oral bioavailability in Beagle dog at 2 mg/kg by LC-MS/MS analysis; type: ADME, organism-based, Canis lupus familiaris; conditions: in vivo
[9] = Clearance in Beagle dog at 2 mg/kg, ig by LC-MS/MS analysis; type: ADME, organism-based, Canis lupus familiaris; conditions: in vivo, po
[10] = Acute toxicity in female Sprague-Dawley rat assessed as change in ratio of uterus with cervix to body weight at 15 to 200 mg/kg, po administered every alternate days for 2 weeks measured on day 14; type: organism-based; conditions: in vivo, 336 h, dose 15-200 mg/kg, time 14 day
Egl nine homolog 1 [11] = target: T1, Egl nine homolog 1; assay: Inhibition of PHD2 in human MCF7 cells assessed as upregulation of HIFalpha expression at 50 uM incubated for 24 hrs by firefly/renilla luciferase reporter gene assay relative to control; type: cell-based
Target sequence in this assay (Q9GZT9 2-426 limits assumed): as above

[12] = AUC (0 to infinity) in Beagle dog at 2 mg/kg, ig by LC-MS/MS analysis; type: ADME, organism-based, Canis lupus familiaris; parameters: route […], time infinity, dose 2 mg/kg; conditions: in vivo, po
Cytochrome P450 3A4 = Cytochrome P450 3A4 (Homo sapiens, UniProt P08684); assay: Inhibition of CYP3A4 (unknown origin) using testosterone as substrate preincubated for 5 mins followed by addition of NADPH measured after 20 mins by LC-MS/MS analysis; type: ADME
[13] = Hepatotoxicity in male Sprague-Dawley rat assessed as change in albumin/globulin ratio at 15 to 200 mg/kg, po administered every alternate days for 2 weeks measured on day 14; type: toxicity, organism-based; conditions: in vivo, 336 h, dose 15-200 mg/kg, time 14 day
[14] = Apparent volume of distribution in Sprague-Dawley rat at 2 mg/kg, ig by LC-MS/MS analysis; type: ADME, organism-based; conditions: in vivo, po
Mus musculus [15] = assay: Antianemic activity in cisplatin-induced C57BL/6 mouse anemia model assessed as improvement in anemia at 25 mg/kg, po administered every other day for 1 month; type: functional; conditions: time 1 months, 730 h
[16] = Half-life in monkey liver microsome at 1 uM preincubated for 5 mins followed by NADPH addition measured up to 120 mins by LC-MS/MS analysis; type: ADME, Macaca mulatta; conditions: rhesus monkey, liver microsomes, time <=125 min
[17] = MRT (0 to infinity) in Beagle dog at 2 mg/kg, ig by LC-MS/MS analysis; type: ADME, organism-based, Canis lupus familiaris; conditions: in vivo, po
[18] = Clearance in Sprague-Dawley rat at 2 mg/kg, ig by LC-MS/MS analysis; type: ADME, organism-based; conditions: in vivo, po
Homo sapiens [19] = species: Homo sapiens; assay: Selectivity index, ratio of IC50 for PHD1 (unknown origin) by O-phenyl enediamine(OPD) based fluorescence assay to IC50 for PHD2 (unknown origin) by O-phenyl enediamine(OPD) based fluorescence assay
Homo sapiens [20] = species: Homo sapiens; assay: Selectivity index, ratio of IC50 for KDM4A (unknown origin) in presence of peptide substrate incubated for 30 mins by alpha screen assay to IC50 for PHD2 (unknown origin) by O-phenyl enediamine(OPD) based fluorescence assay
[21] = AUC (0 to t) in Beagle dog at 0.5 mg/kg, iv by LC-MS/MS analysis; type: ADME, organism-based, Canis lupus familiaris; parameters: dose 0.5 mg/kg; conditions: in vivo
[22] = Half-life in rat liver microsome at 1 uM preincubated for 5 mins followed by NADPH addition measured up to 120 mins by LC-MS/MS analysis; type: ADME; conditions: liver microsomes, time <=125 min
[23] = Nephrotoxicity in Sprague-Dawley rat assessed as change in creatinine level in blood at 15 to 200 mg/kg, po administered every alternate days for 2 weeks measured on day 14; type: toxicity, organism-based; conditions: in vivo, 336 h, dose 15-200 mg/kg, time 14 day
[24] = Genotoxicity in Salmonella typhimurium TA100 at 62.5 to 1000 ug incubated for 48 to 50 hrs in absence of S9 fraction by Ames test; type: toxicity, Salmonella enterica subsp. enterica serovar Typhimurium; conditions: in vivo; dose 62.5-1000 µg, time 48-50 hrs
[25] = Half-life in human L02 cells at 100 uM incubated up to 120 mins by LC-MS/MS analysis; type: ADME, cell-based
[26] = In vivo inhibition of PHD2 in C57BL/6 mouse assessed as increase in EPO plasma level by measuring EPO level at 15 mg/kg, iv measured after 4 hrs by ELISA; type: functional
Mus musculus [27] = assay: Antianemic activity in cisplatin-induced C57BL/6 mouse anemia model assessed as increase in haemoglobin level administered orally every other day for 1 month; type: functional, organism-based; conditions: dose mg/kg 10-25, time 1.0 months

Cytochrome P450 3A4, sequence (P08684 whole entry): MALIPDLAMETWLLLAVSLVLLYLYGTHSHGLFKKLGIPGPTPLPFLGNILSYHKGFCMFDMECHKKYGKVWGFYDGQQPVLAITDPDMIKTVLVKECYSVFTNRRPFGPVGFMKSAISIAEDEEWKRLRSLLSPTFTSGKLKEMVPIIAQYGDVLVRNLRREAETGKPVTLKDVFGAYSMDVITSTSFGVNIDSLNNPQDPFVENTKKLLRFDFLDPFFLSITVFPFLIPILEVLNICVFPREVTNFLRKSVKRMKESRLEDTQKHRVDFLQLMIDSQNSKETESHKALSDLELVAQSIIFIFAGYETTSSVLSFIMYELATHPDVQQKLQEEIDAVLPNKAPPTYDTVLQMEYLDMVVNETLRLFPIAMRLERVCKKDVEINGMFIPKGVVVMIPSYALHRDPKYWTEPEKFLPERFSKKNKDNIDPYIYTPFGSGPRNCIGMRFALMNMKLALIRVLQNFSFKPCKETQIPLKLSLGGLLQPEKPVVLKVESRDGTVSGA

**Q.** With `O=C(O)CNC(=O)c1ncc(C#CCOc2ccc(Cl)cc2)cc1O` [DDO-3055] as the compound, how does the Activity [1] read?
**A.** Non-Toxic

**Q.** And the IC50 (Egl nine homolog 1 [2])?
**A.** 64.2 nM

**Q.** And the bioavailability [3]?
**A.** 55.7%

**Q.** What about the inhibition (Egl nine homolog 1 [4]) of the same compound?
**A.** Dose-dependent effect

**Q.** And the Activity [5]?
**A.** Non-Toxic

**Q.** What about the Activity [6] of the same compound?
**A.** Non-Toxic

**Q.** What about the Activity (HUVEC) of the same compound?
**A.** Non-Toxic

**Q.** And the Activity [7]?
**A.** Non-Toxic

**Q.** And the bioavailability [8]?
**A.** 54%

**Q.** And the CL/F [9]?
**A.** 25.5 mL/min/kg

**Q.** What about the Activity [10] of the same compound?
**A.** Non-Toxic

**Q.** And the fold change (FC) (Egl nine homolog 1 [11])?
**A.** 7

**Q.** What about the AUC(0-inf) [12] of the same compound?
**A.** 1370 ng·h/mL

**Q.** And the IC50 (Cytochrome P450 3A4)?
**A.** > 30 µM

**Q.** What about the Activity [13] of the same compound?
**A.** Non-Toxic

**Q.** And the Vz [14]?
**A.** 3409 mL/kg

**Q.** What about the Activity (Mus musculus [15]) of the same compound?
**A.** 104.5%

**Q.** And the half-life at 1 µM [16]?
**A.** > 99 min

**Q.** And the MRT inf [17]?
**A.** 4.69 h

**Q.** What about the CL/F [18] of the same compound?
**A.** 7.3 mL/min/kg

**Q.** What about the Ratio IC50 (Homo sapiens [19]) of the same compound?
**A.** 29

**Q.** What about the Ratio IC50 (Homo sapiens [20]) of the same compound?
**A.** 1560

**Q.** And the AUC(0-t) [21]?
**A.** 611 ng·h/mL

**Q.** What about the half-life at 1 µM [22] of the same compound?
**A.** > 67 min

**Q.** And the Activity [23]?
**A.** Non-Toxic

**Q.** And the Activity [24]?
**A.** Non-Toxic

**Q.** And the half-life at 100 µM [25]?
**A.** 1060 min

**Q.** And the Activity [26]?
**A.** >1000 pg/mL

**Q.** What about the Activity (Mus musculus [27]) of the same compound?
**A.** Active
